Results on 1 compound are retold here after publication PMC2806265, “Divergence of allosteric effects of rapacuronium on binding and function of muscarinic receptors” (BMC Pharmacology, 2009).

Assay [1] deals with T1, M2 muscarinic receptor (Homo sapiens, UniProt P08172).
T1 sequence (P08172 1-466): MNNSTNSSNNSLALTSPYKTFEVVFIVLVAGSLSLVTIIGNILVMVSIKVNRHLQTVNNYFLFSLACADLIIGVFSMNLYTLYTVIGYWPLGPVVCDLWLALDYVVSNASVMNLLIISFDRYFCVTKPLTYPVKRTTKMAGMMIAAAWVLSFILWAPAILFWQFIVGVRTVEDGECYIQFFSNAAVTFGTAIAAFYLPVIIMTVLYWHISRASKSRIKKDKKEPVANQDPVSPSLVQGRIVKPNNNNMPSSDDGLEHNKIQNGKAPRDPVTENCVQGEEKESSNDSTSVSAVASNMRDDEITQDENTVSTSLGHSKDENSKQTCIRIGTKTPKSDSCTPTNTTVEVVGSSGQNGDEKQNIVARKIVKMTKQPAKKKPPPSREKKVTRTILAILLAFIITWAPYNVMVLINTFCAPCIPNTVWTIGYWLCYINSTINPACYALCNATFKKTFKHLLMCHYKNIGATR
As to the kind of experiment: [3H]ACh saturation binding. More on the design: host or cells: CHO cells, stably transfected; membrane preparation. The text has this: BMAX, maximum binding capacity; KD, equilibrium dissociation constant.

The subject of assay [2] is M1 to M5 muscarinic receptors. As to the kind of experiment: [35S]GTPγS binding, statements over several subtypes. The settings on record: rapacuronium alone. (GTPγS is a poorly hydrolysed GTP analogue; its binding reports G protein activation.)
Description: For determination of [^35S]GTPγS binding to G-proteins in membranes a final concentration of 200 pM (M1, M3 and M5 receptors) or 500 pM (M2 and M4 receptors) of [^35S]GTPγS was used. Incubation medium was supplemented with 5 μM (M1, M3 and M5 receptors) or 50 μM (M2 and M4 receptors) GDP. […] Incubation with [^35S]GTPγS was carried out for 20 min and free ligand was removed by filtration as described above. Filtration and washing with ice-cold water lasted for 9 s (wash-aspirate button time).
For a further assay, the target named is T2, M4 muscarinic receptor (Homo sapiens, UniProt P08173).
T2 sequence (P08173 1-479): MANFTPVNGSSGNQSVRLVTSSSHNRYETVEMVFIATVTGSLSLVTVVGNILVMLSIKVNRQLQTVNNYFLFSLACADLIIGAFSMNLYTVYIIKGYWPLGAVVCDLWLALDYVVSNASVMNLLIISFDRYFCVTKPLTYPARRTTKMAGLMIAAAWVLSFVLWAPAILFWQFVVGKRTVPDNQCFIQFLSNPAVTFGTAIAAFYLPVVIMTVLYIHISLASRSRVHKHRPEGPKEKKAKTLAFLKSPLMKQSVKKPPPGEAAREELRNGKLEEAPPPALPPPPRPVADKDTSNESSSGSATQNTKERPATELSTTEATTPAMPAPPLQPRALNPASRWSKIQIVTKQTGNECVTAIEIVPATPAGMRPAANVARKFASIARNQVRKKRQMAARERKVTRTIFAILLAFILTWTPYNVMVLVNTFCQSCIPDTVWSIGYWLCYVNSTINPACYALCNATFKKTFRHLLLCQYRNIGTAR
As to the kind of experiment: Effect of rapacuronium on 1 nM [3H]NMS binding. More on the design: host or cells: CHO cells, stably transfected; membranes. The text has this: (§1) Cooperativity factor greater than 1 denotes negative cooperativity and less than 1 positive cooperativity. Due to its log-normal error distribution factors of cooperativity are expressed as negative logarithms (pα) through the manuscript so negative values denotes negative cooperativity and positive value denotes positive cooperativity.

The target of a further assay is T3, M5 muscarinic receptor (Homo sapiens, UniProt P08912).
T3 sequence (P08912 1-532): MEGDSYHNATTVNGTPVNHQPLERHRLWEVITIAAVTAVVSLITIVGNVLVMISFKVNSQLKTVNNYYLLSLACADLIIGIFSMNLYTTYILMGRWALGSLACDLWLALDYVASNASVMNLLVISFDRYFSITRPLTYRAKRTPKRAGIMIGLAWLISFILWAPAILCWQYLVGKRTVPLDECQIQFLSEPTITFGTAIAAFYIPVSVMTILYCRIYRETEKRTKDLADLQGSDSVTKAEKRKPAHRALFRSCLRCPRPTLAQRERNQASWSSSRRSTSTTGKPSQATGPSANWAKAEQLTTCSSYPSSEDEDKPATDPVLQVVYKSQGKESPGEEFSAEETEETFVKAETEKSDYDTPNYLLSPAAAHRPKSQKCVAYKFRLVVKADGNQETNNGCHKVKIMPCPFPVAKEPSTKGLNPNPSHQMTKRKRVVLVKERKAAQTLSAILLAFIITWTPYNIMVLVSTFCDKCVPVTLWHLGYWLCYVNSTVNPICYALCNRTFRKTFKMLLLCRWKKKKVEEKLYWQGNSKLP
As to the kind of experiment: Effect of rapacuronium on 1 nM [3H]NMS binding. Set-up: host or cells: CHO cells, stably transfected; membranes.
Description: as §1

The target in assay [3] is T1, M2 muscarinic receptor. As to the kind of experiment: [3H]ACh association and dissociation kinetics. The note with it: 10 μM rapacuronium, 40 nM [^3H]ACh. Type of assay: binding. Set-up: host or cells: CHO cells, stably transfected; membrane preparation. The source says: y, radioligand binding at time x; kobs, observed rate of association; equilibrium binding Beq = Bottom + Span.
y, radioligand binding at time x normalized to binding at time 0; koff1 and koff2, dissociation rate constants; f2, fraction of binding site with dissociation rate constant koff2. When both Eq. 7a and 7b were fitted to data the better fit was chosen based on sum of squares F-test and runs test.

[4] abbreviates: read-out: pKA of rapacuronium (converted).

As for `C=CC[N+]1([C@H]2C[C@H]3[C@@H]4CC[C@H]5C[C@H](OC(C)=O)[C@@H](N6CCCCC6)C[C@]5(C)[C@H]4CC[C@]3(C)[C@H]2OC(=O)CC)CCCCC1` [rapacuronium], the figures for the “BMAX of [^3H]ACh” value on M2 muscarinic receptor [1] (+ 10 μM rapacuronium) and at M2 muscarinic receptor [1] (+ 100 μM rapacuronium) were 0.74 ± 0.07 fmol/μg of protein and 0.77 ± 0.08 fmol/μg of protein, respectively. For the same compound, the “maximal lowering of [^35S]GTPγS binding” value in assay [2] (even-numbered subtypes) is recorded as ~15%; in assay [2] (odd-numbered subtypes) it was “approximately 25%”. Moreover, the “pα, cooperativity with [^3H]NMS” value on M4 muscarinic receptor (M4, negative value = negative cooperativity) was -1.40 ± 0.04; at M5 muscarinic receptor (M5, negative value = negative cooperativity) it was -1.54 ± 0.05. The values for the Kd on M4 muscarinic receptor (setting [4]) and at M5 muscarinic receptor (setting [4]) were 3.8 µM and 10.7 µM, respectively. The “decrease in affinity of [^3H]NMS (cooperativity)” value at M5 muscarinic receptor (M5) came out at 35 fold. Further, the “time of peak of [^3H]ACh association” value at M2 muscarinic receptor [3] is reported as “around 90 seconds”.
